Results as given in PMC10035904, “Synthesis of novel sulphamethoxazole derivatives and exploration of their anticancer and antimicrobial properties” (PLOS ONE, 2023).
Values after ≈ are worked out from the molar mass of the structure shown.

What was measured:
Assay type in all cases: cell-based
[1] = tested on: Klebsiella pneumoniae ATCC 33499; assay: Serial dilution on solid agar, K. pneumoniae; details: ATCC33499, solid Mueller-Hinton agar, 24 hours
Description: Antimicrobial activity of compound 16b on solid agar was tested using the same microbial cultures, and the same suspension preparation procedure, as described in above section. All procedures were done in aseptic conditions.
Mueller-Hinton agar was boiled and kept at to 37 °C during the whole procedure. Compound 16b solution was prepared in DMSO right before experiment. The Agar was mixed with compound solution at different ratios to make the final compound concentrations of 1 mM, 400 μM, 200 μM and 100 μM. Then 10 ml of prepared solution was poured into sterile Petri dishes (85 mm in diameter) and kept in aseptic conditions while the agar solidified. The agar with 0.5% of DMSO served as a negative control. With the help of loop standard microbial cultures by 0.1 ml were poured on the surface of prepared agar with investigative compound. Then Petri dishes were kept for 24 hours in thermostatic conditions.
The minimal dilution, i.e. the lowest concentration in μg/mL of the investigative and comparison compounds that inhibited visible growth of microorganisms was the minimal inhibitory concentration (MIC).

[2] = tested on: Candida albicans ATCC 60193; assay: Serial broth dilution in liquid medium, C. albicans; details: ATCC60193, Mueller-Hinton broth, 48 hours, 50% reduction of microbial growth, n = 3
Description: Antibacterial and antifungal susceptibility to the compound 16b was tested using a serial broth dilution technique in Mueller-Hinton broth II (BBL, Cockeysville, USA), as described elsewhere. All procedures were done in aseptic conditions. Standard bacterial and fungal cultures were used: Staphylococcus aureus ATCC 25923, Staphylococcus epidermidis ATCC 12228, Escherichia coli ATCC 25922, Enterococcus faecalis ATCC 29212, Klebsiella pneumoniae ATCC 33499, Pseudomonas aeruginosa ATCC 27853, Proteus mirabilis ATCC 12459, Bacillus cereus ATCC 8035, and Candida albicans ATCC 60193. Standard cultures of nonsporic bacteria S. aureus, S. epidermidis, E. coli, E. faecalis, K. pneumoniae, P. aeruginosa and P. mirabilis were cultivated for 20–24 hours at 37°C in Mueller-Hinton Agar (BBL, Cockeysville, USA). A bacterial suspension was prepared from cultivated bacterial cultures in physiological solution according to turbidity standard 0.5 McFarland. Standard culture of sporic bacteria B. cereus was cultivated for 7 days at 37°C in Mueller-Hinton II Agar. […] Then the absorbance was measured at 600 nm using a multi-detection microplate reader. […]

[3] = tested on: Human foreskin fibroblasts (HF) CRL-4001; assay: MTT cell viability assay, fibroblasts HF; details: Fibroblast, 72 hours of incubation, n = 3, read-out: EC50 against HF
Description: The human clear cell renal cell carcinoma line (CaKi-1) was obtained from American Type Culture Collection (ATCC, Manassas, VA). The human prostate carcinoma cell line PPC-1 was originally obtained from ATCC and kindly provided by Prof. Tambet Teesalu (University of Tartu, Estonia). Human foreskin fibroblasts (HF) CRL-4001 were originally obtained from ATCC and kindly provided by Prof. Helder Santos (University of Helsinki, Finland). Cells were cultured in Dulbecco’s Modified Eagle’s GlutaMAX medium (Gibco (Carlsbad, CA, USA) supplemented with 10,000 U/mL penicillin, 10 mg/mL streptomycin (Gibco), and 10% fetal bovine serum (Gibco). During cell passaging, Tryple Express reagent (Gibco) was used for cell detachment. Cell cultures were grown at 37°C in a humidified atmosphere containing 5% CO2. They were used until the passage of 20.
The effect of synthesized compounds on cell viability was studied using 3-(4,5-dimethylthiazol-2-yl)-2,5-diphenyltetrazolium bromide (MTT; Sigma-Aldrich Co., St Louis, MO, USA) assay, as described elsewhere. […] The absorbance was measured at 570 and 630 nm using a multi-detection microplate reader. The compound effect on cell viability was calculated using a formula (1): Relativecellviability%=A−A0/ANC−A0 (1) Where: […]

- MIC [1]: 1000 µM (≈ 462 µg/mL)
- EC50 [2]: 85.5 ± 7.1 µM
SMILES: Cc1cc(NS(=O)(=O)c2ccc(NCCC(=O)NN=Cc3ccc([N+](=O)[O-])o3)cc2)no1 [Compound 16b, N-(5-methylisoxazol-3-yl)-4-((3-(2-((5-nitrofuran-2-yl)methylene)hydrazineyl)-3-oxopropyl)amino)-benzenesulfonamide]
- EC50 [3]: 9.5 ± 2.7 µM
